Literature values in US8221990B2, “Screening GPR12 receptor for substances having Nesfatin-1-like action, or which regulate Nesfatin-1 action” (Teijin Pharma Limited, priority 2007, dated 2012).

Molecular target: T1, GPR12 (Homo sapiens, UniProt P47775)
T1 sequence (P47775 1-334): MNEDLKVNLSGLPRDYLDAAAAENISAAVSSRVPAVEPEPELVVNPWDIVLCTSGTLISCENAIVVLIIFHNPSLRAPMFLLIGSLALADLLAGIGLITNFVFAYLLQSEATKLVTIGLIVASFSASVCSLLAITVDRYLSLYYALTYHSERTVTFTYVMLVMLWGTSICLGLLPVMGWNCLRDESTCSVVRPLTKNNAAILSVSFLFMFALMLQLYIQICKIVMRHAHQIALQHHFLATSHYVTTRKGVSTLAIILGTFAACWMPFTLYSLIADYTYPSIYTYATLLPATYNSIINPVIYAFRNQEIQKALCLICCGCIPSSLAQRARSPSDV
Conditions: cells in which a GPR12 gene is introduced and expressed; cited from earlier work

| Structure (SMILES) | cytoplasmic calcium ion concentration |
| --- | --- |
| CCCCCCCCCCCCC/C=C/[C@@H](O)[C@@H](N)COP(=O)(O)O [S1P, sphingosine 1-phosphate] | increase in cytoplasmic calcium ion concentration occurs |
| CCCCCCCCCCCCC/C=C/[C@@H](O)[C@@H](N)COP(=O)([O-])OCC[N+](C)(C)C [SPC, sphingosylphosphorylcholine] | increase in cytoplasmic calcium ion concentration occurs |
